# Measured values: ChEMBL document CHEMBL4138123, “Design, synthesis and biological evaluation of novel pyrazolochalcones as potential modulators of PI3K/Akt/mTOR pathway and inducers of apoptosis in breast cancer cells” (Eur J Med Chem, 2017)
# How the values were obtained:
# Type in all cases: functional
# K562 = assay: Cytotoxicity against human K562 cells assessed as growth inhibition after 48 hrs by sulforhodamine B assay; conditions: K562, 48 h
# COLO 205 = assay: Cytotoxicity against human COLO205 cells assessed as growth inhibition after 48 hrs by sulforhodamine B assay; conditions: COLO 205, 48 h
# MDA-MB-435 [1] = assay: Cytotoxicity against human MDA-MB-435 cells assessed as growth inhibition after 48 hrs by sulforhodamine B assay; conditions: MDA-MB-435, 48 h
# IGROV-1 [2] = assay: Cytotoxicity against human IGROV1 cells assessed as growth inhibition after 48 hrs by sulforhodamine B assay; conditions: IGROV-1, 48 h
# OVCAR-5 = assay: Cytotoxicity against human OVCAR5 cells assessed as growth inhibition after 48 hrs by sulforhodamine B assay; conditions: OVCAR-5, 48 h
# SK-OV-3 = assay: Cytotoxicity against human SKOV3 cells assessed as growth inhibition after 48 hrs by sulforhodamine B assay; conditions: SK-OV-3, 48 h
# A498 = assay: Cytotoxicity against human A498 cells assessed as growth inhibition after 48 hrs by sulforhodamine B assay; conditions: A498, 48 h
# PC-3 = assay: Cytotoxicity against human PC3 cells assessed as growth inhibition after 48 hrs by sulforhodamine B assay; conditions: PC-3, 48 h
# OVCAR-8 [3] = assay: Cytotoxicity against human OVCAR8 cells assessed as cell growth at 0.01 uM after 48 hrs by sulforhodamine B assay relative to control; conditions: OVCAR-8, 48 h, read-out: Activity
# SW-620 [4] = assay: Cytotoxicity against human SW620 cells assessed as cell growth at 0.01 uM after 48 hrs by sulforhodamine B assay relative to control; conditions: SW-620, 48 h, read-out: Activity
# NCI-H226 = assay: Cytotoxicity against human NCI-H226 cells assessed as cell growth at 0.01 uM after 48 hrs by sulforhodamine B assay relative to control; conditions: NCI-H226, 48 h, read-out: Activity
# HL-60(TB) = assay: Cytotoxicity against human HL-60(TB) cells assessed as cell growth at 0.01 uM after 48 hrs by sulforhodamine B assay relative to control; conditions: HL-60, 48 h, read-out: Activity
# MCF7 [5] = assay: Cytotoxicity against human MCF7 cells assessed as cell growth at 0.01 uM after 48 hrs by sulforhodamine B assay relative to control; conditions: MCF7, 48 h, read-out: Activity
# CCRF-CEM = assay: Cytotoxicity against human CCRF-CEM cells assessed as cell growth at 0.1 uM after 48 hrs by sulforhodamine B assay relative to control; conditions: read-out: Activity
# HOP-62 [6] = assay: Cytotoxicity against human HOP62 cells assessed as cell growth at 0.1 uM after 48 hrs by sulforhodamine B assay relative to control; conditions: HOP-62, 48 h, read-out: Activity
# KM12 [7] = assay: Cytotoxicity against human KM12 cells assessed as cell growth at 0.1 uM after 48 hrs by sulforhodamine B assay relative to control; conditions: KM12, 48 h, read-out: Activity
# Malme-3M = assay: Cytotoxicity against human MALME-3M cells assessed as cell growth at 0.1 uM after 48 hrs by sulforhodamine B assay relative to control; conditions: read-out: Activity
# OVCAR-3 = assay: Cytotoxicity against human OVCAR3 cells assessed as cell growth at 0.1 uM after 48 hrs by sulforhodamine B assay relative to control; conditions: OVCAR-3, 48 h, read-out: Activity
# ACHN = assay: Cytotoxicity against human ACHN cells assessed as cell growth at 0.1 uM after 48 hrs by sulforhodamine B assay relative to control; conditions: read-out: Activity
# MCF7 [8] = assay: Cytotoxicity against human MCF7 cells assessed as cell growth at 0.1 uM after 48 hrs by sulforhodamine B assay relative to control; conditions: MCF7, 48 h, read-out: Activity
# SR [9] = assay: Cytotoxicity against human SR cells assessed as cell growth at 1 uM after 48 hrs by sulforhodamine B assay relative to control; conditions: read-out: Activity
# KM12 [10] = assay: Cytotoxicity against human KM12 cells assessed as cell growth at 1 uM after 48 hrs by sulforhodamine B assay relative to control; conditions: KM12, 48 h, read-out: Activity
# SF-539 = assay: Cytotoxicity against human SF539 cells assessed as cell growth at 1 uM after 48 hrs by sulforhodamine B assay relative to control; conditions: SF-539, 48 h, read-out: Activity
# OVCAR-8 [11] = assay: Cytotoxicity against human OVCAR8 cells assessed as cell growth at 1 uM after 48 hrs by sulforhodamine B assay relative to control; conditions: OVCAR-8, 48 h, read-out: Activity
# SN12C = assay: Cytotoxicity against human SN12C cells assessed as cell growth at 1 uM after 48 hrs by sulforhodamine B assay relative to control; conditions: read-out: Activity
# Hs-578T = assay: Cytotoxicity against human Hs 578T cells assessed as cell growth at 1 uM after 48 hrs by sulforhodamine B assay relative to control; conditions: read-out: Activity
# T47D = assay: Cytotoxicity against human T47D cells assessed as cell growth at 1 uM after 48 hrs by sulforhodamine B assay relative to control; conditions: read-out: Activity
# HOP-62 [12] = assay: Cytotoxicity against human HOP62 cells assessed as cell growth at 10 uM after 48 hrs by sulforhodamine B assay relative to control; conditions: HOP-62, 48 h, read-out: Activity
# NCI-H460 = assay: Cytotoxicity against human NCI-H460 cells assessed as cell growth at 10 uM after 48 hrs by sulforhodamine B assay relative to control; conditions: NCI-H460, 48 h, read-out: Activity
# IGROV-1 [13] = assay: Cytotoxicity against human IGROV1 cells assessed as cell growth at 10 uM after 48 hrs by sulforhodamine B assay relative to control; conditions: IGROV-1, 48 h, read-out: Activity
# SR [14] = assay: Cytotoxicity against human SR cells assessed as cell growth at 100 uM after 48 hrs by sulforhodamine B assay relative to control; conditions: read-out: Activity
# SW-620 [15] = assay: Cytotoxicity against human SW620 cells assessed as cell growth at 100 uM after 48 hrs by sulforhodamine B assay relative to control; conditions: SW-620, 48 h, read-out: Activity
# MDA-MB-435 [16] = assay: Cytotoxicity against human MDA-MB-435 cells assessed as cell growth at 100 uM after 48 hrs by sulforhodamine B assay relative to control; conditions: MDA-MB-435, 48 h, read-out: Activity
# NCI/ADR-RES [17] = assay: Cytotoxicity against human NCI/ADR-RES cells assessed as growth inhibition after 48 hrs by sulforhodamine B assay
# NCI/ADR-RES [18] = assay: Cytotoxicity against human NCI/ADR-RES cells assessed as cell growth at 1 uM after 48 hrs by sulforhodamine B assay relative to control; conditions: read-out: Activity
# MOLT-4 = assay: Cytotoxicity against human MOLT4 cells assessed as cell growth at 10 uM after 48 hrs by sulforhodamine B assay relative to control; conditions: MOLT-4, 48 h, read-out: Activity
# MDA-MB-435 [19] = assay: Cytotoxicity against human MDA-MB-435 cells assessed as cell growth at 10 uM after 48 hrs by sulforhodamine B assay relative to control; conditions: MDA-MB-435, 48 h, read-out: Activity
smiles,measurement,setting,value
COc1ccc(C(=O)/C=C/c2cc(-c3ccc4c(c3)OCO4)n[nH]2)cc1OC,LC50 (concentration killing 50% of cells),K562,> 100 µM
same,TGI,K562,16.7 µM
same,LC50,COLO 205,45.9 µM
same,TGI,COLO 205,14 µM
same,LC50,MDA-MB-435 [1],99 µM
same,TGI,MDA-MB-435 [1],10 µM
same,LC50,IGROV-1 [2],68 µM
same,TGI,IGROV-1 [2],9.2 µM
same,LC50,OVCAR-5,> 100 µM
same,TGI,OVCAR-5,23.2 µM
same,LC50,SK-OV-3,> 100 µM
same,TGI,SK-OV-3,26.4 µM
same,LC50,A498,13.9 µM
same,TGI,A498,4.23 µM
same,GI50,PC-3,2580 nM
same,LC50,PC-3,> 100 µM
same,TGI,PC-3,18.2 µM
same,growth at 0.01 µM,OVCAR-8 [3],99%
same,growth at 0.01 µM,SW-620 [4],100%
same,growth at 0.01 µM,NCI-H226,90%
same,growth at 0.01 µM,HL-60(TB),97%
same,growth at 0.01 µM,MCF7 [5],92%
same,growth at 0.1 µM,CCRF-CEM,99%
same,growth at 0.1 µM,HOP-62 [6],99%
same,growth at 0.1 µM,KM12 [7],99%
same,growth at 0.1 µM,Malme-3M,100%
same,growth at 0.1 µM,OVCAR-3,104%
same,growth at 0.1 µM,ACHN,100%
same,growth at 0.1 µM,MCF7 [8],94%
same,growth at 1 µM,SR [9],57%
same,growth at 1 µM,KM12 [10],94%
same,growth at 1 µM,SF-539,88%
same,growth at 1 µM,OVCAR-8 [11],89%
same,growth at 1 µM,SN12C,91%
same,growth at 1 µM,Hs-578T,94%
same,growth at 1 µM,T47D,79%
same,growth at 10 µM,HOP-62 [12],-29%
same,growth at 10 µM,NCI-H460,-56%
same,growth at 10 µM,IGROV-1 [13],-4%
same,growth at 100 µM,SR [14],-35%
same,growth at 100 µM,SW-620 [15],-78%
same,growth at 100 µM,MDA-MB-435 [16],-50%
COc1ccc(C(=O)/C=C/c2cc(-c3cc(OC)c(OC)c(OC)c3)n[nH]2)cc1,LC50 (concentration killing 50% of cells),K562,> 100 µM
same,LC50,COLO 205,6.06 µM
same,TGI,COLO 205,3.24 µM
same,LC50,MDA-MB-435 [1],> 100 µM
same,TGI,MDA-MB-435 [1],5.69 µM
same,LC50,IGROV-1 [2],> 100 µM
same,TGI,IGROV-1 [2],4.81 µM
same,LC50,OVCAR-5,7.6 µM
same,TGI,OVCAR-5,3.78 µM
same,LC50,NCI/ADR-RES [17],> 100 µM
same,TGI,NCI/ADR-RES [17],9.85 µM
same,LC50,SK-OV-3,> 100 µM
same,TGI,SK-OV-3,20.5 µM
same,TGI,A498,3.94 µM
same,growth at 0.01 µM,OVCAR-8 [3],95%
same,growth at 0.01 µM,SW-620 [4],99%
same,growth at 0.01 µM,NCI-H226,99%
same,growth at 0.01 µM,HL-60(TB),115%
same,growth at 0.01 µM,MCF7 [5],101%
same,growth at 0.1 µM,CCRF-CEM,98%
same,growth at 0.1 µM,HOP-62 [6],102%
same,growth at 0.1 µM,KM12 [7],94%
same,growth at 0.1 µM,Malme-3M,91%
same,growth at 0.1 µM,OVCAR-3,101%
same,growth at 0.1 µM,ACHN,102%
same,growth at 0.1 µM,MCF7 [8],93%
same,growth at 1 µM,SR [9],22%
same,growth at 1 µM,KM12 [10],83%
same,growth at 1 µM,SF-539,87%
same,growth at 1 µM,OVCAR-8 [11],86%
same,growth at 1 µM,NCI/ADR-RES [18],90%
same,growth at 1 µM,SN12C,91%
same,growth at 1 µM,Hs-578T,96%
same,growth at 1 µM,T47D,78%
same,growth at 10 µM,MOLT-4,-20%
same,growth at 10 µM,HOP-62 [12],-64%
same,growth at 10 µM,NCI-H460,-63%
same,growth at 10 µM,MDA-MB-435 [19],-30%
same,growth at 10 µM,IGROV-1 [13],-47%
same,growth at 100 µM,SR [14],-5%
same,growth at 100 µM,SW-620 [15],-39%
same,growth at 100 µM,MDA-MB-435 [16],-44%
